Each molecule was assayed against human factor Xa (Homo sapiens, UniProt P00742) (assay: Factor Xa assay (chromogenic, substrate S-2765)). Conditions: inhibition constant for factor Xa; purified enzyme 0.5 nM, substrate S-2765 140 μM, 25° C., pH 7.8; Ki=IC50/{1+(substrate concentration/Km)}; read-out: Ki(FXa).
Type: biochemical
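Note: purified enzyme preincubated with inhibitor for 10 min before substrate addition, final reaction volume 100 µl.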

Chain of human factor Xa (P00742 235-488 limits assumed): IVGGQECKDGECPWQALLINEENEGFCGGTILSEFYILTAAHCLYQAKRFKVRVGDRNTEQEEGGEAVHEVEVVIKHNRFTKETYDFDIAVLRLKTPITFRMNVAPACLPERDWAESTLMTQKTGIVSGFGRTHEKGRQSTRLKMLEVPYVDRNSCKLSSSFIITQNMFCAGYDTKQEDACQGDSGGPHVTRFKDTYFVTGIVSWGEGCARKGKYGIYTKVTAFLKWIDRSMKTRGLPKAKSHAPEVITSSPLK
Chain of human factor Xa (P00742 41-179 partner limits assumed): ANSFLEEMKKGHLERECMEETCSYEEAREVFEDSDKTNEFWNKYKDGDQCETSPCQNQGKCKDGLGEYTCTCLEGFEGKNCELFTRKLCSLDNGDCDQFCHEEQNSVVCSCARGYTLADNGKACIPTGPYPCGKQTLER

Structure (SMILES)	Ki
CC(C)N1CCC(NC(=O)c2cc3ccccc3n2CC(=O)Nc2ccc(Cl)cc2)CC1 [Example 248, 1-[(4-chloro-phenylcarbamoyl)-methyl]-1H-indole-2-carboxylic acid (1-isopropyl-piperidin-4-yl)-amide]	3 nM
CC(C)N1CCC(NC(=O)c2cc3ccccc3n2CC(=O)Nc2ccc(Cl)s2)CC1 [Example 249, 1-[(5-chloro-thiophen-2-ylcarbamoyl)-methyl]-1H-indole-2-carboxylic acid (1-isopropyl-piperidin-4-yl)-amide]	15 nM
O=C(NC1CCN(CCO)CC1)c1cc2ccccc2n1Cc1cc(-c2ccc(Cl)s2)on1 [Example 260, 1-[5-(5-chloro-thiophen-2-yl)-isoxazol-3-ylmethyl]-1H-indole-2-carboxylic acid [1-(2-hydroxy-ethyl)-piperidin-4-yl]-amide]	131 nM

Same assay, conditions: read-out: Ki(FXa)

Structure (SMILES)	Ki
COC(=O)c1ccc2c(c1)cc(C(=O)NC1CCN(C(C)C)CC1)n2Cc1cc(-c2ccc(Cl)s2)on1 [Example 239, 1-[5-(5-Chloro-thiophen-2-yl)-isoxazol-3-ylmethyl]-2-(1-isopropyl-piperidin-4-ylcarbamoyl)-1H-indole-5-carboxylic acid methyl ester]	5 nM
CC(C)N1CCC(NC(=O)c2cc3cc(C(=O)OCOC(=O)C(C)(C)C)ccc3n2Cc2cc(-c3ccc(Cl)s3)on2)CC1 [Example 240, 1-[5-(5-Chloro-thiophen-2-yl)-isoxazol-3-ylmethyl]-2-(1-isopropyl-piperidin-4-ylcarbamoyl)-1H-indole-5-carboxylic acid 2,2-dimethyl-propionyloxymethyl ester]	35 nM
CC(C)N1CCC(NC(=O)c2cc3cc(C(=O)O)ccc3n2Cc2nnc(-c3ccc(Cl)s3)s2)CC1 [Example 242, 1-[5-(5-Chloro-thiophen-2-yl)-[1,3,4]thiadiazol-2-ylmethyl]-2-(1-isopropyl-piperidin-4-ylcarbamoyl)-1H-indole-5-carboxylic acid]	4 nM
CC(C)OC(=O)c1ccc2c(c1)cc(C(=O)NC1CCN(C(C)C)CC1)n2CC(=O)Nc1ccc(Cl)cc1 [Example 243, 1-[(4-Chloro-phenylcarbamoyl)-methyl]-2-(1-isopropyl-piperidin-4-ylcarbamoyl)-1H-indole-5-carboxylic acid isopropyl ester]	10 nM
CC(C)N1CCC(NC(=O)c2cc3cc(C(=O)O)ccc3n2CC(=O)Nc2ccc(Cl)cc2)CC1 [Example 244, 1-[(4-Chloro-phenylcarbamoyl)-methyl]-2-(1-isopropyl-piperidin-4-ylcarbamoyl)-1H-indole-5-carboxylic acid]	4 nM
CC(C)N1CCC(NC(=O)c2cc3c(C(=O)O)cccc3n2Cc2cc(-c3ccc(Cl)s3)on2)CC1 [Example 246, 1-[5-(5-Chloro-thiophen-2-yl)-isoxazol-3-ylmethyl]-2-(1-isopropyl-piperidin-4-ylcarbamoyl)-1H-indole-4-carboxylic acid]	4 nM
CC(C)N1CCC(NC(=O)c2cc3cc(C(N)=O)ccc3n2Cc2cc(-c3ccc(Cl)s3)on2)CC1 [Example 247, 1-[5-(5-Chloro-thiophen-2-yl)-isoxazol-3-ylmethyl]-1H-indole-2,5-dicarboxylic acid 5-amide 2-[(1-isopropyl-piperidin-4-yl)-amide]]	24 nM
CC(C)N1CCC(NC(=O)c2cc3ccccc3n2CC(=O)Nc2ccc(Cl)cc2F)CC1 [Example 250, 1-[(4-chloro-2-fluoro-phenylcarbamoyl)-methyl]-1H-indole-2-carboxylic acid (1-isopropyl-piperidin-4-yl)-amide]	31 nM
O=C(Cn1c(C(=O)NCC2CCN(c3ccncc3)CC2)cc2ccccc21)Nc1ccc(Cl)cc1 [Example 252, 1-[(4-chloro-phenylcarbamoyl)-methyl]-1H-indole-2-carboxylic acid (3,4,5,6-tetrahydro-2H-[1,4′]bipyridinyl-4-ylmethyl)-amide]	230 nM
O=C(Cn1c(C(=O)NC2CCN(c3ccncc3)CC2)cc2ccccc21)Nc1ccc(Cl)cc1 [Example 253, 1-[(4-chloro-phenylcarbamoyl)-methyl]-1H-indole-2-carboxylic acid (3,4,5,6-tetrahydro-2H-[1,4′]bipyridinyl-4-yl)-amide]	340 nM
O=C(Cn1c(C(=O)N2CCC(Nc3ccncc3)CC2)cc2ccccc21)Nc1ccc(Cl)cc1 [Example 254, N-(4-chloro-phenyl)-2-{2-[4-(pyridin-4-ylamino)-piperidine-1-carbonyl]-indol-1-yl}-acetamide]	223 nM
O=C(Cn1c(C(=O)NC2CCN(C3CC3)CC2)cc2ccccc21)Nc1ccc(Cl)cc1 [Example 255, 1-[(4-chloro-phenylcarbamoyl)-methyl]-1H-indole-2-carboxylic acid (1-cyclopropyl-piperidin-4-yl)-amide]	106 nM
O=C(Cn1c(C(=O)N2CCC(N3CCCC3)CC2)cc2ccccc21)Nc1ccc(Cl)cc1 [Example 256, N-(4-chloro-phenyl)-2-[2-(4-pyrrolidin-1-yl-piperidine-1-carbonyl)-indol-1-yl]-acetamide]	754 nM
CC(C)N1CCC(NC(=O)c2cc3cc([N+](=O)[O-])ccc3n2CC(=O)Nc2ccc(Cl)cc2)CC1 [Example 257, 1-[(4-chloro-phenylcarbamoyl)-methyl]-5-nitro-1H-indole-2-carboxylic acid (1-isopropyl-piperidin-4-yl)-amide]	6 nM
CC(C)N1CCC(NC(=O)c2cc3c(Cl)c(N)ccc3n2Cc2cc(-c3ccc(Cl)s3)on2)CC1 [Example 258, 5-amino-4-chloro-1-[5-(5-chloro-thiophen-2-yl)-isoxazol-3-ylmethyl]-1H-indole-2-carboxylic acid (1-isopropyl-piperidin-4-yl)-amide]	11 nM
N#CCN1CCC(NC(=O)c2cc3ccccc3n2Cc2cc(-c3ccc(Cl)s3)on2)CC1 [Example 259, 1-[5-(5-chloro-thiophen-2-yl)-isoxazol-3-ylmethyl]-1H-indole-2-carboxylic acid (1-cyanomethyl-piperidin-4-yl)-amide]	772 nM
COCCN1CCC(NC(=O)c2cc3ccccc3n2Cc2cc(-c3ccc(Cl)s3)on2)CC1 [Example 261, 1-[5-(5-chloro-thiophen-2-yl)-isoxazol-3-ylmethyl]-1H-indole-2-carboxylic acid [1-(2-methoxy-ethyl)-piperidin-4-yl]-amide]	139 nM
NC(=O)CN1CCC(NC(=O)c2cc3ccccc3n2Cc2cc(-c3ccc(Cl)s3)on2)CC1 [Example 262, 1-[5-(5-chloro-thiophen-2-yl)-isoxazol-3-ylmethyl]-1H-indole-2-carboxylic acid (1-carbamoylmethyl-piperidin-4-yl)-amide]	250 nM
CNC(=O)CN1CCC(NC(=O)c2cc3ccccc3n2Cc2cc(-c3ccc(Cl)s3)on2)CC1 [Example 263, 1-[5-(5-chloro-thiophen-2-yl)-isoxazol-3-ylmethyl]-1H-indole-2-carboxylic acid (1-methylcarbamoylmethyl-piperidin-4-yl)-amide]	580 nM
O=C(NC1CCN(Cc2ncc[nH]2)CC1)c1cc2ccccc2n1Cc1cc(-c2ccc(Cl)s2)on1 [Example 264, 1-[5-(5-chloro-thiophen-2-yl)-isoxazol-3-ylmethyl]-1H-indole-2-carboxylic acid [1-(1H-imidazol-2-ylmethyl)-piperidin-4-yl]-amide]	559 nM
Cn1ccnc1CN1CCC(NC(=O)c2cc3ccccc3n2Cc2cc(-c3ccc(Cl)s3)on2)CC1 [Example 265, 1-[5-(5-chloro-thiophen-2-yl)-isoxazol-3-ylmethyl]-1H-indole-2-carboxylic acid [1-(1-methyl-1H-imidazol-2-ylmethyl)-piperidin-4-yl]-amide]	404 nM
NCC(=O)N1CCC(NC(=O)c2cc3ccccc3n2Cc2cc(-c3ccc(Cl)s3)on2)CC1 [Example 267, 1-[5-(5-chloro-thiophen-2-yl)-isoxazol-3-ylmethyl]-1H-indole-2-carboxylic acid [1-(2-amino-acetyl)-piperidin-4-yl]-amide]	891 nM
CCOC(=O)OC(C)OC(=O)c1ccc2c(c1)cc(C(=O)NC1CCN(C(C)C)CC1)n2Cc1cc(-c2ccc(Cl)s2)on1 (stereo not drawn) [Example 268, 1-[5-(5-Chloro-thiophen-2-yl)-isoxazol-3-ylmethyl]-2-(1-isopropyl-piperidin-4-ylcarbamoyl)-1H-indole-5-carboxylic acid 1-ethoxycarbonyloxy-ethyl ester]	42 nM
CCOC(=O)OC(C)OC(=O)c1cccc2c1cc(C(=O)NC1CCN(C(C)C)CC1)n2Cc1cc(-c2ccc(Cl)s2)on1 (stereo not drawn) [Example 269, 1-[5-(5-Chloro-thiophen-2-yl)-isoxazol-3-ylmethyl]-2-(1-isopropyl-piperidin-4-ylcarbamoyl)-1H-indole-4-carboxylic acid 1-ethoxycarbonyloxy-ethyl ester]	7 nM
CC(C)N1CCC(NC(=O)c2cc3c(C(=O)OCOC(=O)C(C)(C)C)cccc3n2Cc2cc(-c3ccc(Cl)s3)on2)CC1 [Example 270, 1-[5-(5-Chloro-thiophen-2-yl)-isoxazol-3-ylmethyl]-2-(1-isopropyl-piperidin-4-ylcarbamoyl)-1H-indole-4-carboxylic acid 2,2-dimethyl-propionyloxymethyl ester]	13 nM
CC(OC(=O)c1ccc2c(c1)cc(C(=O)NC1CCN(C(C)C)CC1)n2Cc1cc(-c2ccc(Cl)s2)on1)OC(=O)C(C)(C)C (stereo not drawn) [Example 271, 1-[5-(5-Chloro-thiophen-2-yl)-isoxazol-3-ylmethyl]-2-(1-isopropyl-piperidin-4-ylcarbamoyl)-1H-indole-5-carboxylic acid 1-(2,2-dimethyl-propionyloxy)-ethyl ester]	92 nM
CC(OC(=O)c1cccc2c1cc(C(=O)NC1CCN(C(C)C)CC1)n2Cc1cc(-c2ccc(Cl)s2)on1)OC(=O)C(C)(C)C (stereo not drawn) [Example 272, 1-[5-(5-Chloro-thiophen-2-yl)-isoxazol-3-ylmethyl]-2-(1-isopropyl-piperidin-4-ylcarbamoyl)-1H-indole-4-carboxylic acid 1-(2,2-dimethyl-propionyloxy)-ethyl ester]	17 nM

Reference: US20090069565A1, “NEW INDOLE DERIVATIVES AS FACTOR XA INHIBITORS” (priority 2001, published 2009)
